Consider 22 molecules from patent US8183262B2, “Pyridine derivatives as mGluR2 antagonists” (Hoffmann-La Roche Inc., priority 2007, dated 2012).

Consider `COCCNS(=O)(=O)c1cccc(-c2cccc(-c3cc(-c4ccc(C(F)(F)F)cc4)cc(C)n3)n2)c1` [Example 371, N-(2-Methoxy-ethyl)-3-[6′-methyl-4′-(4-trifluoromethyl-phenyl)-[2,2′]bipyridinyl-6-yl]-benzenesulfonamide], for which the melting point (in general, the temperature of the solid-liquid transition) was determined as 126 °C.
Consider `Cc1cc(-c2ccc(C(F)(F)F)cc2)cc(-c2cccc(-c3cccc(S(=O)(=O)NCCOCCO)c3)n2)n1` [Example 372, N-[2-(2-Hydroxy-ethoxy)-ethyl]-3-[6′-methyl-4′-(4-trifluoromethyl-phenyl)-[2,2′]bipyridinyl-6-yl]-benzenesulfonamide], for which the melting point is 123 °C.
`Cc1cc(-c2ccc(C(F)(F)F)cc2)cc(-c2cccc(-c3cccc(S(=O)(=O)N4CCOCC4)c3)n2)n1` [Example 373, 6-Methyl-6′-[3-(morpholine-4-sulfonyl)-phenyl]-4-(4-trifluoromethyl-phenyl)-[2,2′]bipyridinyl]: the melting point came to 216 °C.
`CCC(=O)NS(=O)(=O)c1cccc(-c2cc(-c3nc(-c4ccc(C(F)(F)F)cc4)cc(C(F)(F)F)n3)ccn2)c1` [Example 374, N-Propionyl-3-{4-[4-trifluoromethyl-6-(4-trifluoromethyl-phenyl)-pyrimidin-2-yl]-pyridin-2-yl}-benzenesulfonamide] registered a melting point of 144 °C.
With `CCC(=O)NS(=O)(=O)c1ccc(-c2cc(-c3nc(-c4ccc(C(F)(F)F)cc4)cc(C(F)(F)F)n3)ccn2)s1` [Example 375, 5-{4-[4-Trifluoromethyl-6-(4-trifluoromethyl-phenyl)-pyrimidin-2-yl]-pyridin-2-yl}-thiophene-2-sulfonic acid propionyl-amide] the figure was 257 °C; with `Cc1cc(-c2ccc(Cl)c(C)c2)nc(-c2cccc(-c3ccc(N)nc3)c2)n1` [Example 376, 5-{3-[4-(4-Chloro-3-methyl-phenyl)-6-methyl-pyrimidin-2-yl]-phenyl}-pyridin-2-ylamine], 158 °C (dec.).
Consider `Nc1ccc(-c2cn(-c3nc(-c4ccc(F)cc4)cc(C(F)(F)F)n3)cn2)cn1` [Example 378, 5-{1-[4-(4-Fluoro-phenyl)-6-trifluoromethyl-pyrimidin-2-yl]-1H-imidazol-4-yl}-pyridin-2-ylamine], for which the melting point stood at 249.5 °C.
As for `Cc1cc(-c2ccc(Cl)c(C)c2)nc(-c2cccc(-c3cccc(S(N)(=O)=O)c3)c2)n1` [Example 379, 3′-[4-(4-Chloro-3-methyl-phenyl)-6-methyl-pyrimidin-2-yl]-biphenyl-3-sulfonic acid amide], the melting point worked out at 201 °C.
With `Cc1cc(-c2ccc(Cl)c(C)c2)nc(-c2cccc(-c3ccc(S(N)(=O)=O)s3)c2)n1` [Example 380, 5-{3-[4-(4-Chloro-3-methyl-phenyl)-6-methyl-pyrimidin-2-yl]-phenyl}-thiophene-2-sulfonic acid amide] the figure was 240 °C; with `O=S(=O)(NCCO)c1cccc(-c2cc(-c3nc(-c4ccc(C(F)(F)F)cc4)cc(C(F)(F)F)n3)ccn2)c1` [Example 381, N-(2-Hydroxy-ethyl)-3-{4-[4-trifluoromethyl-6-(4-trifluoromethyl-phenyl)-pyrimidin-2-yl]-pyridin-2-yl}-benzenesulfonamide], 192.5 °C.
In turn, `CC(C)(CO)NS(=O)(=O)c1cccc(-c2cc(-c3nc(-c4ccc(C(F)(F)F)cc4)cc(C(F)(F)F)n3)ccn2)c1` [Example 382, N-(2-Hydroxy-1,1-dimethyl-ethyl)-3-{4-[4-trifluoromethyl-6-(4-trifluoromethyl-phenyl)-pyrimidin-2-yl]-pyridin-2-yl}-benzenesulfonamide] yielded a melting point of 221 °C.
For `O=S(=O)(c1cccc(-c2cc(-c3nc(-c4ccc(C(F)(F)F)cc4)cc(C(F)(F)F)n3)ccn2)c1)N(CCO)CCO` [Example 383, N,N-Bis-(2-hydroxy-ethyl)-3-{4-[4-trifluoromethyl-6-(4-trifluoromethyl-phenyl)-pyrimidin-2-yl]-pyridin-2-yl}-benzenesulfonamide] the value was 186 °C.
On to `NS(=O)(=O)c1ccc(-c2cn(-c3nc(-c4ccc(F)c(F)c4)cc(C(F)(F)F)n3)cn2)s1` [Example 385, 5-{1-[4-(3,4-Difluoro-phenyl)-6-trifluoromethyl-pyrimidin-2-yl]-1H-imidazol-4-yl}-thiophene-2-sulfonic acid amide], for which the melting point was determined as 228 °C.
For `NS(=O)(=O)c1ccc(-c2cn(-c3nc(-c4ccc(F)cc4)cc(C(F)(F)F)n3)cn2)s1` [Example 386, 5-{1-[4-(4-Fluoro-phenyl)-6-trifluoromethyl-pyrimidin-2-yl]-1H-imidazol-4-yl}-thiophene-2-sulfonic acid amide] the value was 244.5 °C; for `NS(=O)(=O)c1cccc(-c2cn(-c3nc(-c4ccc(F)cc4)cc(C(F)(F)F)n3)cn2)c1` [Example 387, 3-{1-[4-(4-Fluoro-phenyl)-6-trifluoromethyl-pyrimidin-2-yl]-1H-imidazol-4-yl}-benzenesulfonamide], 260 °C.
For `NS(=O)(=O)c1ccc(-c2cccc(-c3nc(-c4ccc(F)c(F)c4)cc(C(F)(F)F)n3)c2)s1` [Example 388, 5-{3-[4-(3,4-Difluoro-phenyl)-6-trifluoromethyl-pyrimidin-2-yl]-phenyl}-thiophene-2-sulfonic acid amide] the value was 238 °C.
For `O=S(=O)(NCCO)c1cccc(-c2cccc(-c3nc(-c4ccc(C(F)(F)F)cc4)cc(C(F)(F)F)n3)c2)c1` [Example 391, 3′-[4-Trifluoromethyl-6-(4-trifluoromethyl-phenyl)-pyrimidin-2-yl]-biphenyl-3-sulfonic acid (2-hydroxy-ethyl)-amide] the value was 153 °C; for `O=S(=O)(c1cccc(-c2cccc(-c3nc(-c4ccc(C(F)(F)F)cc4)cc(C(F)(F)F)n3)c2)c1)N(CCO)CCO` [Example 392, 3′-[4-Trifluoromethyl-6-(4-trifluoromethyl-phenyl)-pyrimidin-2-yl]-biphenyl-3-sulfonic acid bis-(2-hydroxy-ethyl)-amide], 111.5 °C; for `NS(=O)(=O)c1cccc(-c2cccc(-c3nc(-c4ccc(F)c(F)c4)cc(C(F)(F)F)n3)c2)c1` [Example 393, 3′-[4-(3,4-Difluoro-phenyl)-6-trifluoromethyl-pyrimidin-2-yl]-biphenyl-3-sulfonic acid amide], 211 °C.
In turn, `NS(=O)(=O)c1ccc(-c2cccc(-c3nc(-c4ccc(F)cc4)cc(C(F)(F)F)n3)c2)s1` [Example 395, 5-{3-[4-(4-Fluoro-phenyl)-6-trifluoromethyl-pyrimidin-2-yl]-phenyl}-thiophene-2-sulfonic acid amide] had a melting point of 228.5 °C.
With `NS(=O)(=O)c1cccc(-c2cn(-c3nc(-c4ccc(F)c(F)c4)cc(C(F)(F)F)n3)cn2)c1` [Example 396, 3-{1-[4-(3,4-Difluoro-phenyl)-6-trifluoromethyl-pyrimidin-2-yl]-1H-imidazol-4-yl}-benzenesulfonamide] the figure was 241.5 °C; with `NS(=O)(=O)c1ccc(-c2cc(-c3nc(-c4ccc(F)cc4)cc(C(F)(F)F)n3)ccn2)s1` [Example 397, 5-{4-[4-(4-Fluoro-phenyl)-6-trifluoromethyl-pyrimidin-2-yl]-pyridin-2-yl}-thiophene-2-sulfonic acid amide], 282 °C.
